Measurements from patent publication US20130237556A1, “BERBERINE ALKALOID AS A MEDICAMENT FOR PREVENTION AND TREATMENT OF NEURAL DISEASE” (HONG KONG BAPTIST UNIVERSITY, priority 2012, published 2013).
“And” between values parts separate entries of the source, which are not always exact repeats. Equal entries are not always repeated. “Also recorded” adds a separate entry of the source.

Tests used:
N2a-SwedAPP cells = assay: Immunofluorescence of p-APP in endosomal compartments (Rab5); assay type: cell-based, mouse; conditions: 20 μM BBR, 3 h
Procedure: N2a-SweAPP cells are mouse neuroblastoma N2a cells stably transfected with human Swedish mutant APP695, and were gifts from Dr. Gopal Thinakaran (University of Chicago, Chicago Ill.). Cells were maintained in Dulbecco's modified Eagle's medium (DMEM) (Invitrogen, Carlsbad, Calif.) supplemented with 10% fetal bovine serum, penicillin and streptomycin and 200 μg/mL G418 (Invitrogen). Cells were cultured either in multiwell dishes or on 60 mm tissue culture plates in DMEM 10% with FBS Cell cultures were incubated at 37° C. in a humid 5% CO2/ 95% air environment. After cells were grown close to confluence, they were treated with/without different concentrations of BBR in DMEM (1% FBS) for 24 h. […]
For higher resolution microscopy, images were acquired using an Olympus IX70 Delta Vision microscopy system (Applied Precision, Issaquah, Wash.) with a 100×1.5 numerical aperture oil immersion lens. […] Subsequently serial Z-stacks of fluorescence images at 0.2-μm interval were acquired and deconvolved via a controlled iterative algorithm to generate high-resolution images of cells using […] (Applied Precision).

TgCRND8 mice [1] = assay: Morphometric analysis of Aβ plaque size subsets; assay type: in vivo, mouse
TgCRND8 mice [2] = assay: Thioflavin S staining of fibrillar parenchymal and cerebrovascular (CAA) Aβ; assay type: in vivo, mouse; conditions: for reduction in ThioS-positive fibrillar Aβ: relative to untreated control TgCRND8
TgCRND8 mice [3] = assay: Morris water maze (visible platform, hidden platform, probe trials); assay type: in vivo, mouse
[4] = BBR levels in TgCRND8 brain tissue by LC/MS after oral administration; assay type: in vivo, mouse; conditions: for concentration at 3 hr: TgCRND8, mouse, brain, po, 3 hr after p.o. administration, LC/MS
Procedure: To determine how oral administration of BBR influences the concentration of BBR in the brain, liquid chromatography and mass spectrometry techniques (LC/MS) are used to analyze changes in BBR levels in the TgCRND8 brain tissue in a separate experiment. BBR levels in the brain are found to be 0.88±0.27 and 1.67±0.73 μM for low and high doses of BBR respectively after 3 hr p.o. administration.

[5] = Regular oral BBR treatment of TgCRND8 mice: body weight and side effects; conditions: BBR 25 or 100 mg/kg/d orally for 4 months
Aβ1-42 fibril formation = Aβ1-42 fibril formation (Homo sapiens, UniProt P05067); conditions: BBR 20 μM, in vitro; cited from earlier work
Chain of Aβ1-42 fibril formation (P05067 672-713 limits assumed): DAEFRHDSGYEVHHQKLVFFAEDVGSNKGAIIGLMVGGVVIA

TgCRND8 mice [6] = assay: Aβ plaque burden by 4G8 immunostaining in cortex and hippocampus; assay type: in vivo, mouse

With `COc1ccc2cc3[n+](cc2c1OC)CCc1cc2c(cc1-3)OCO2` [BBR, 5,6-dihydro-9,10-dimethoxybenzo[g]-1,3-benzodioxolo[5,6-a]quinolizinium] the “pAPP staining in the endosomal compartments” value (N2a-SwedAPP cells) was “markedly reduced”, the “percentage reduction in large (>50) amyloid plaque subset” value (TgCRND8 mice [1]; 25 mg/Kg) was 60% and the “percentage reduction in medium (25-50 μm) amyloid plaque subset” value (TgCRND8 mice [1]; 25 mg/Kg) was 41%. The “percentage reduction in small sized (<25 μm) amyloid plaque subset” value (TgCRND8 mice [1]; 25 mg/Kg) was 35%, the “percentage reduction in total amyloid plaque number” value (TgCRND8 mice [1]; 25 mg/Kg) was 37% and the “reduction of amyloid plaque subsets” value (TgCRND8 mice [1]; 100 mg/Kg/d) was 21-28%. The “ThioS-labeled blood vessels (CAA), cortical area covered” value (TgCRND8 mice [2]; 25 mg/Kg/d (vehicle 1.44±0.17%)) was 0.70% ±0.11, the “reduction in ThioS-positive fibrillar Aβ” value (TgCRND8 mice [2]; 25 mg/kg/d) was 40% and the “ThioS-labeled blood vessels (CAA), cortical area covered” value (TgCRND8 mice [2]; 100 mg/Kg/d (vehicle 1.44±0.17%)) was 0.89%±0.02. The “reduction in ThioS-positive fibrillar Aβ” value (TgCRND8 mice [2]; 100 mg/kg/d) was 51%, the “probe trial: time spent in the target quadrant” value (TgCRND8 mice [3]; 25 and 100 mg/kg/d vs vehicle-treated TgCRND8) was “highest duration; also recorded: prevent decrease in the time spent in the target quadrant” and the “probe trial: spatial bias” value (TgCRND8 mice [3]; BBR 25 mg/Kg, all probe trials) was “significantly increases their spatial bias”. The “hidden platform path distance (swim path)” value (TgCRND8 mice [3]; low and high doses of BBR (25 and 100 mg/kg/d) vs vehicle-treated TgCRND8) was “significantly reduced swim path; also recorded: reduced the path distance; also recorded: show a reduction in swimming distance”, the concentration at 3 hr ([4]; 25 mg/kg/d, low dose of BBR) was 880 ± 270 nM and the concentration at 3 hr ([4]; 100 mg/kg/d, high dose of BBR) was 1670 ± 730 nM. For the same molecule, the “passage through the blood-brain barrier” value ([4]; mouse, in vivo) was “readily passes through the blood-brain barrier”, the animal body weight [5] was “does not significantly influence animal body weight” and the “inhibition of Aβ1-42 fibril formation” value (Aβ1-42 fibril formation) was 36.3%. The “decrease in plaque burden compared with control animals (4G8)” value (TgCRND8 mice [6]; 25 mg/Kg/d) was 60% and 61% and the “reduction in amyloid burden observed in this study” value (TgCRND8 mice [6]; range over BBR doses (discussion)) was 43-63%.
